What was measured:
[1] = system: Sheep B<HbAo> antibody; assay: Inhibition of Ao conjugate current by antibody; format: binding
[2] = system: Zymed rabbit antibodies; assay: Inhibition of Ao conjugate current by antibody; format: binding
[3] = system: HbAo antibody; assay: Reversal of antibody inhibition with AoHB-peptide #1; format: binding
[4] = Stability of mediator labels (analytical HPLC, % inhibition values over time); format: physicochemical; conditions: for Stability in solution: stored as solution
Experimental: (§1) Samplers frozen at−20° C. appear to be stable.

[5] = system: hemoglobin Alc antibody PAB IS (polyclonal, immunosorbent purified); assay: Inhibition of osmium mediator-peptide conjugate current by antibody (enzyme amplified amperometry, palladium electrodes); format: binding, sheep; conditions: for Inhibition with Antibody, PAB IS: maximum inhibition
Source text: 3. Antibodies for the analytes (HbAlc and HbAO) which react specifically with the N-terminal peptides which have been incorporated into the conjugate are provided by standard methods for producing polyclonal antibodies. In this case, sheep were immunized with carrier proteins to which were conjugated the synthetic peptide sequences for HbAlc and HbA0. Following the appropriate immunization schedule, the sheep were bled, and the antibody isolated from the blood via ion exchange chromatography, followed by immunosorbent purification on a column of the same N-terminal peptide with a different linker.
(§2) 4. Appropriate stoichiometry of the reaction was determined for the two reactions independently by methods standard for immunoassay development. A solution containing a fixed amount of labeled conjugate was mixed with a solution with varying amounts of antibody, and, following an appropriate incubation period, the amount of free conjugate remaining was measured on the IDA electrode using the procedure described above.
(§3) Polyclonal DE (ion-exchange) purified sheep antibody is used in the TinaQuant HbAlc assay. IS (immunosorbent) antibody is prepared using standard IS purification methodology. Samples of a monoclonal antibody were also obtained for evaluation. Inhibition curves were performed in solution with all mixing occurring in microcentrifuge tubes. Inhibition curves with the three hemoglobin Alc antibodies (PAB IS, PAB DE, and MAB) were generated by fixing OS-DSG-Alc at 5μM and varying the antibody concentration. […] From the inhibition curves we were able to select reasonable concentrations of antibody for maximum reversal with Alc samples.
(§4) While these feasibility studies for a HbAlc immunoassay used an enzyme mediated amplification method (Glucdor/PQQ/glucose was used to regenerate reduced mediator after oxidation at the electrode surface providing a higher diffusion controlled current is given by the cottrell equation), they are considered to be indicative of results attainable with the use of IDA electrodes with bipotentiostatic control is most preferred for measuring mediator labeled conjugates in accordance with this invention.

[6] = system: hemoglobin Alc antibody PAB DE (polyclonal, ion-exchange purified); assay: as above; format: binding, sheep; conditions: for Inhibition with Antibody, PAB DE: maximum inhibition
Experimental: as §2, §3, §4

[7] = system: hemoglobin Alc antibody MAB (monoclonal); assay: as above; format: binding; conditions: for Inhibition with Antibody, MAB: maximum inhibition
Experimental: as §2, §3, §4

[8] = system: hemoglobin Alc antibodies (PAB IS, PAB DE, MAB); assay: Reversal of antibody inhibition with BSA-Alc polyhaptan; format: binding
Source text: Reversal curves were then generated using a series of dilutions ofBAS-Alc-polyhaptan with a−1:1 Alc:BAS. The BAS-Alc acts as our sample and binds to the antibody.

[9] = system: HbAlc antibodies; assay: Inhibition curves of mediator labels, antibody not given; format: binding
Experimental: as §3, §1

[10] = molecular target: glucose oxidase (Aspergillus niger, UniProt P13006); conditions: with glucose oxidase; cited from earlier work
glucose oxidase, sequence (P13006 17-605, species assumed): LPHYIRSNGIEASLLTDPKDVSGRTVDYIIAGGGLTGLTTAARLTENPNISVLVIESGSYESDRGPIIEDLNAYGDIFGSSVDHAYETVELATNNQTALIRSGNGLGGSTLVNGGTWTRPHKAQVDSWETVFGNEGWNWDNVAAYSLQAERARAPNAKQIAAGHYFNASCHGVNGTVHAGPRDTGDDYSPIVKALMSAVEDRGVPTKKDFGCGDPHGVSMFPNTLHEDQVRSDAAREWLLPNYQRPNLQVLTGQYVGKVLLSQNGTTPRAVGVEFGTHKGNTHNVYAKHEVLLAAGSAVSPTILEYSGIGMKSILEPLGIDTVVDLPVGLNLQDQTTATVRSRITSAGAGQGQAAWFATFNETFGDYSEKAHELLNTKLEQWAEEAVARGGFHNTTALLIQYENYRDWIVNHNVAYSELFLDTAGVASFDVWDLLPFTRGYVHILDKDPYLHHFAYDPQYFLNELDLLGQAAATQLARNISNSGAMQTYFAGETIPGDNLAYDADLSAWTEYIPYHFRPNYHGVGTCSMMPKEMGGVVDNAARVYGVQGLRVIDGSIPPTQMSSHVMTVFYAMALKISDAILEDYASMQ

CC(C)CC(NC(=O)C(Cc1cnc[nH]1)NC(=O)C(N)C(C)C)C(=O)NC(C(=O)NC(CCCCNC(=O)CCCCCN1C(=O)CC(SCC(=O)NCCc2c[n+]([Os]34([Cl])([n+]5ccccc5-c5cccc[n+]53)[n+]3ccccc3-c3cccc[n+]34)c[nH]2)C1=O)C(=O)O)C(C)O (centres unmarked) [Os-SATA-Ao]
Inhibition with Antibody, Sheep B<HbAo> [1]: ≤ 84%
Inhibition with Antibody, Zymed rabbit antibodies [2]: No
Reversal with AoHB-peptide #1 [3]: No with AoHB-
Stability in solution [4]: unstable in solution. Conjugate

CC(C)CC(NC(=O)C(Cc1cnc[nH]1)NC(=O)C(NCC1(O)OCC(O)C(O)C1O)C(C)C)C(=O)NC(C(=O)NC(CSC1CC(=O)N(CC2CCC(C(=O)NCCc3c[n+]([Os]45([Cl])([n+]6ccccc6-c6cccc[n+]64)[n+]4ccccc4-c4cccc[n+]45)c[nH]3)CC2)C1=O)C(=O)O)C(C)O (centres unmarked) [Os-SMCC-Alc]
Inhibition with Antibody, PAB IS [5]: PAB IS (≦92%)
Inhibition with Antibody, PAB DE [6]: PAB DE (≦97%)
Inhibition with Antibody, MAB [7]: MAB (≦50%)
Reversal with BSA-Alc polyhaptan [8]: Yes with BSA-Alc
Max inhibition from inhibition curve [9]: 97%
Stability in solution [4]: Degrades in solution.

CC(C)CC(NC(=O)C(Cc1cnc[nH]1)NC(=O)C(NCC1(O)OCC(O)C(O)C1O)C(C)C)C(=O)NC(C(=O)NC(CCCCNC(=O)CCCCCN1C(=O)CC(SCC(=O)NCCc2c[n+]([Os]34([Cl])([n+]5ccccc5-c5cccc[n+]53)[n+]3ccccc3-c3cccc[n+]34)c[nH]2)C1=O)C(=O)O)C(C)O (centres unmarked) [Os-SATA-Alc]
Inhibition with Antibody, PAB IS [5]: PAB IS (≦44%)
Reversal with BSA-Alc polyhaptan [8]: Yes with BSA-Alc
Max inhibition from inhibition curve [9]: 44%
Stability in solution [4]: Stability similar to SMCC.

Bis(2,2′-bipyridyl) imidazolyl chloroosmium [Os mediator]
Mediation kinetics relative to ferricyanide [10]: about 500 times faster

CC(C)CC(NC(=O)C(Cc1cnc[nH]1)NC(=O)C(NCC1(O)OCC(O)C(O)C1O)C(C)C)C(=O)NC(C(=O)NC(CCCCNC(=O)CCCC(=O)NCCc1c[n+]([Os]23([Cl])([n+]4ccccc4-c4cccc[n+]42)[n+]2ccccc2-c2cccc[n+]23)c[nH]1)C(=O)O)C(C)O (centres unmarked) [Os-DSG-Alc]
Antibody concentration at which maximum change of inhibition is reached, PAB IS ([5]; conjugate fixed at 5 μM): ~5 µM
Inhibition with Antibody, PAB IS [5]: PAB IS (≦91%)
Amount of PAB DE antibody needed to get close to maximum inhibition, relative to PAB IS and MAB ([6]; conjugate fixed at 5 μM): more than 3 times
Inhibition with Antibody, PAB DE [6]: PAB DE (<87%)
Antibody concentration at which maximum change of inhibition is reached, MAB ([7]; conjugate fixed at 5 μM): ~5 µM
Inhibition with Antibody, MAB [7]: MAB (<78%)
Reversal with BSA-Alc polyhaptan [8]: Yes with BSA-Alc
Stability lyophilized and frozen ([4]; lyophilized form and frozen in solution at -20 C (40 and 80 uM)): stable
